Data from paper PMC4318582, “Chemotherapy of Second Stage Human African Trypanosomiasis: Comparison between the Parenteral Diamidine DB829 and Its Oral Prodrug DB868 in Vervet Monkeys” (PLoS Neglected Tropical Diseases, 2015).
Values joined by “and” are separate entries in the source; they are usually repeats but may differ in a detail not shown here. Identical values can stand only once.

Test system: T. b. rhodesiense KETRI 2537
Test: Efficacy in KETRI vervet monkey model of second stage HAT
Type: in vivo
Source text: The current study used the KETRI vervet monkey model of HAT, a model developed over 30 years ago through the experimental infection of vervet monkeys with T. b. rhodesiense. […] Trypanosomes were identified in peripheral blood first and cerebrospinal fluid (CSF) second, allowing the disease to be classified into an early (haemo-lymphatic) and a late (central nervous system [CNS]) stage, similar to the human disease. […] Monkey trypanosomal infections have been determined to be invariably fatal without therapeutic intervention, a characteristic also widely accepted as true for human sleeping sickness.
Parasitaemia and CSF parasitosis were monitored using established techniques for blood trypanosomes and CSF trypanosomes, respectively.
Due to a regulated freeze on acquisitions of new non-human primates, only six monkeys were available for the IM DB829 study. These animals were divided into three treatment groups, each consisting of one male and one female, to compare dose-responsiveness between consecutive- and alternate-day dosing. Monkeys were treated with 2.5 or 5 mg/kg/day for 5 consecutive days or with 5 mg/kg/day on alternating days for a total of 5 doses (Table 1).
Twelve additional monkeys were available for the oral DB868 efficacy study. These animals were, before infection, divided into three groups, each consisting of two males and two females. DB868 was administered orally to each group at 3, 10 or 20 mg/kg/day for 10 consecutive days (Table 2).
Parasitaemia post-infection was monitored daily, using ear-prick capillary blood, through the completion of DB868 and DB829 treatment. […] At 300 days post-LDD, monkeys were considered cured if they remained normal clinically and parasite-free in the blood and CSF. Pharmacokinetic outcomes were monitored for a minimum of 60 days post-LDD as described previously. […] Monkeys that relapsed, characterized by trypanosome recrudescence in the blood or CSF, were rescue-treated with melarsoprol.

[1] = IM 2.5mg/kg × 5 days, monkeys 546M, 693F
[2] = IM 5 mg/kg × 5 alternate days, monkeys 668M, 676F
[3] = IM 5 mg/kg × 5 days, monkeys 569F, 659M

SMILES: N=C(N)c1ccc(-c2ccc(-c3ccc(C(=N)N)cn3)o2)nc1 [DB829, 2,5-bis(5-amidino-2-pyridyl)furan]
- Cured/treated (IM 2.5mg/kg × 5 days): 2/2
- Final efficacy assessment at 300 days post-LDD of DB829 [1]: Cured
- Provisional efficacy at 100 days post-LDD of DB829 [1]: Cured
- Trypanosomes at EoT [1]: Neg
- Cured/treated (IM 5 mg/kg × 5 alternate days): 2/2
- Final efficacy assessment at 300 days post-LDD of DB829 [2]: Cured
- Provisional efficacy at 100 days post-LDD of DB829 [2]: Cured
- Trypanosomes at EoT [2]: Neg
- Cured/treated (IM 5 mg/kg × 5 days): 1/1
- Time to initial clearance of trypanosomes from body fluids (blood and CSF) (IM 5 mg/kg × 5 days, alternate-day dosing (28, 30, 30, 32, 34 and 36 DPI), monkeys 668M, 676F): 1 days post-LDD
- Time to initial clearance of trypanosomes from body fluids (blood and CSF) (IM 5mg/kg × 5 days, consecutive-day dosing 28–32 DPI, monkeys 569F, 659M): 1 days post-LDD
- Final efficacy assessment at 300 days post-LDD of DB829 (IM 5 mg/kg × 5 days, monkey 569F (659M withdrawn)): Cured
- Provisional efficacy at 100 days post-LDD of DB829 [3]: Cured
- Trypanosomes at EoT [3]: Neg
- Time to initial clearance of trypanosomes from body fluids (blood and CSF) (IM, monkeys 546M, 693F, Table 3 prints 5mg/kg × 5 days, consecutive-day dosing 28–32 DPI (text: 2.5 mg/kg/day)): 4 days post-LDD and 7 days post-LDD
- Final efficacy assessment at 300 days post-LDD of DB829, Overall Results (final combined cure rate) (all IM DB829 regimens combined): cured all monkeys and 5/5
- Provisional efficacy at 100 days post-LDD of DB829, Overall Results (all IM DB829 regimens combined): 6/6
- Trypanosomes at EoT, Overall Results (provisional cure rate) (all IM DB829 regimens combined): 6/6
